In PubChem BioAssay (NCI):
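Cultured in 96-well plates, cells were exposed to test compound for 48 hours across five concentrations. TGI is the concentration that stops growth completely.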

Legend:
Experiment in all cases: NCI anticancer screen, dose series, 48 h
MALME-3M melanoma = system: MALME-3M melanoma
EKVX NSCLC = system: EKVX NSCLC
IGROV1 ovarian = system: IGROV1 ovarian
MCF7 breast = system: MCF7 breast
SK-OV-3 ovarian = system: SK-OV-3 ovarian
MDA-MB-435 = system: MDA-MB-435
SW-620 colon = system: SW-620 colon
COLO 205 colon = system: COLO 205 colon
OVCAR-4 ovarian = system: OVCAR-4 ovarian
OVCAR-5 ovarian = system: OVCAR-5 ovarian
HT29 colon = system: HT29 colon
HL-60(TB) leukemia = system: HL-60(TB) leukemia
SNB-75 CNS = system: SNB-75 CNS
OVCAR-8 ovarian = system: OVCAR-8 ovarian
SK-MEL-5 melanoma = system: SK-MEL-5 melanoma
HCT-15 colon = system: HCT-15 colon
UO-31 renal = system: UO-31 renal
HOP-62 NSCLC = system: HOP-62 NSCLC
NCI/ADR-RES ovarian = system: NCI/ADR-RES ovarian
UACC-62 melanoma = system: UACC-62 melanoma
CAKI-1 renal = system: CAKI-1 renal
OVCAR-3 ovarian = system: OVCAR-3 ovarian
HOP-92 NSCLC = system: HOP-92 NSCLC
SF-539 CNS = system: SF-539 CNS
SR leukemia = system: SR leukemia
MOLT-4 leukemia = system: MOLT-4 leukemia
MDA-MB-231 breast = system: MDA-MB-231 breast
PC-3 prostate = system: PC-3 prostate
CCRF-CEM leukemia = system: CCRF-CEM leukemia
HCC-2998 colon = system: HCC-2998 colon
U251 CNS = system: U251 CNS
SF-295 CNS = system: SF-295 CNS
NCI-H460 lung = system: NCI-H460 lung
A549 NSCLC = system: A549 NSCLC
ACHN renal = system: ACHN renal
LOX IMVI melanoma = system: LOX IMVI melanoma
MDA-N = system: MDA-N
SK-MEL-2 melanoma = system: SK-MEL-2 melanoma
SK-MEL-28 melanoma = system: SK-MEL-28 melanoma
SNB-19 CNS = system: SNB-19 CNS
RPMI-8226 leukemia = system: RPMI-8226 leukemia
A498 renal = system: A498 renal
M14 melanoma = system: M14 melanoma
NCI-H23 lung = system: NCI-H23 lung
K-562 leukemia = system: K-562 leukemia
KM12 colon = system: KM12 colon
DU-145 prostate = system: DU-145 prostate
T-47D breast = system: T-47D breast
TK-10 renal = system: TK-10 renal
UACC-257 melanoma = system: UACC-257 melanoma
RXF 393 renal = system: RXF 393 renal
NCI-H522 lung = system: NCI-H522 lung
SF-268 CNS = system: SF-268 CNS
786-0 renal = system: 786-0 renal
NCI-H226 lung = system: NCI-H226 lung
HS 578T breast = system: HS 578T breast
BT-549 breast = system: BT-549 breast

CCOC(=O)c1csc(NC(=O)C(C)N2CCOCC2)n1 (stereo not given)
TGI (MALME-3M melanoma): > 100 µM | TGI (EKVX NSCLC): > 100 µM | TGI (IGROV1 ovarian): > 100 µM | TGI (MCF7 breast): > 100 µM | TGI (SK-OV-3 ovarian): > 100 µM | TGI (MDA-MB-435): > 100 µM | TGI (SW-620 colon): > 100 µM | TGI (COLO 205 colon): > 100 µM | TGI (OVCAR-4 ovarian): > 100 µM | TGI (OVCAR-5 ovarian): > 100 µM | TGI (HT29 colon): > 100 µM | TGI (HL-60(TB) leukemia): > 100 µM | TGI (SNB-75 CNS): > 100 µM | TGI (OVCAR-8 ovarian): > 100 µM | TGI (SK-MEL-5 melanoma): > 100 µM | TGI (HCT-15 colon): > 100 µM | TGI (UO-31 renal): > 100 µM | TGI (HOP-62 NSCLC): > 100 µM | TGI (NCI/ADR-RES ovarian): > 100 µM | TGI (UACC-62 melanoma): > 100 µM | TGI (CAKI-1 renal): > 100 µM | TGI (OVCAR-3 ovarian): > 100 µM | TGI (HOP-92 NSCLC): > 100 µM | TGI (SF-539 CNS): > 100 µM | TGI (SR leukemia): > 100 µM | TGI (MOLT-4 leukemia): > 100 µM | TGI (MDA-MB-231 breast): > 100 µM | TGI (PC-3 prostate): > 100 µM | TGI (CCRF-CEM leukemia): > 100 µM | TGI (HCC-2998 colon): > 100 µM | TGI (U251 CNS): > 100 µM | TGI (SF-295 CNS): > 100 µM | TGI (NCI-H460 lung): > 100 µM | TGI (A549 NSCLC): > 100 µM | TGI (ACHN renal): > 100 µM | TGI (LOX IMVI melanoma): > 100 µM | TGI (MDA-N): > 100 µM | TGI (SK-MEL-2 melanoma): > 100 µM | TGI (SK-MEL-28 melanoma): > 100 µM | TGI (SNB-19 CNS): > 100 µM | TGI (RPMI-8226 leukemia): > 100 µM | TGI (A498 renal): > 100 µM | TGI (M14 melanoma): > 100 µM | TGI (NCI-H23 lung): > 100 µM | TGI (K-562 leukemia): > 100 µM | TGI (KM12 colon): > 100 µM | TGI (DU-145 prostate): > 100 µM | TGI (T-47D breast): > 100 µM | TGI (TK-10 renal): > 100 µM | TGI (UACC-257 melanoma): > 100 µM | TGI (RXF 393 renal): > 100 µM

CC(C)=Nn1cnc2c1NC(C)(C)N=C2C(N)=O
TGI (EKVX NSCLC): > 10 µM | TGI (IGROV1 ovarian): > 10 µM | TGI (NCI-H522 lung): > 10 µM | TGI (MCF7 breast): > 10 µM | TGI (MDA-MB-435): > 10 µM | TGI (OVCAR-4 ovarian): > 10 µM | TGI (OVCAR-5 ovarian): > 10 µM | TGI (HL-60(TB) leukemia): > 10 µM | TGI (SNB-75 CNS): > 10 µM | TGI (OVCAR-8 ovarian): > 10 µM | TGI (SK-MEL-5 melanoma): > 10 µM | TGI (UO-31 renal): > 10 µM | TGI (SF-268 CNS): > 10 µM | TGI (OVCAR-3 ovarian): > 10 µM | TGI (SF-539 CNS): > 10 µM | TGI (SR leukemia): > 10 µM | TGI (MOLT-4 leukemia): > 10 µM | TGI (MDA-MB-231 breast): 7.64 µM | TGI (CCRF-CEM leukemia): > 10 µM | TGI (U251 CNS): > 10 µM | TGI (SF-295 CNS): > 10 µM | TGI (NCI-H460 lung): > 10 µM | TGI (A549 NSCLC): > 10 µM | TGI (ACHN renal): > 10 µM | TGI (786-0 renal): > 10 µM | TGI (MDA-N): > 10 µM | TGI (SNB-19 CNS): > 10 µM | TGI (M14 melanoma): > 10 µM | TGI (NCI-H23 lung): > 10 µM | TGI (K-562 leukemia): > 10 µM | TGI (KM12 colon): > 10 µM | TGI (DU-145 prostate): > 10 µM | TGI (T-47D breast): 8.19 µM | TGI (TK-10 renal): > 10 µM | TGI (NCI-H226 lung): > 10 µM | TGI (UACC-257 melanoma): > 10 µM | TGI (HS 578T breast): > 10 µM | TGI (BT-549 breast): > 10 µM | TGI (RXF 393 renal): > 10 µM
